Measurements published in patent US12648965B2, “Use of bovine spleen peptide powder in improving sleep, preventing or treating depression, or improving intestinal function” (BEIJING NO. 1 BIO-TECHNOLOGY DEVELOPMENT CO., LTD., priority 2022, dated 2026).

Assays:
[1] = system: zebrafish model of insomnia established by PTZ; experiment: Evaluation of the efficacy in improving sleep, PTZ zebrafish model of insomnia; assay type: in vivo; conditions: 125 μg/mL, 24 h, n = 10
Description: In the present application, a state in which zebrafish is in a speed of movement of greater than 20 mm/s is considered to be an awake state, a state in which the speed of movement is less than 4 mm/s is considered to be a sleep state, and a state in which the speed of movement is 4-20 mm/s corresponds to sleep latency.
As used herein, the term “amount of wake after sleep onset” refers to the distance of movements during which the speed of movement is greater than 20 mm/s.
As used herein, the term “time of wake after sleep onset” refers to the time of movements during which the speed of movement is greater than 20 mm/s.
The 5 dpf wild type zebrafish of line AB were randomly selected and placed in a 6-well plate, and for the experimental groups 30 zebrafish were treated in each well. The positive control melatonin was in a concentration of 125 μg/mL. Meanwhile, the normal control group (fed in a conventional manner) and the model control group (i.e., the zebrafish model of insomnia established by PTZ) were set, with a capacity of 3 mL per well. […] The zebrafish were analyzed for amount of wake after sleep onset and time of wake after sleep onset. The bovine spleen peptide powder was evaluated for its efficacy in sleep improvement through statistical analysis results of the above indicators. The statistical results were expressed as “mean±standard deviation”.

[2] = system: zebrafish model of gastrointestinal mucosal injury (TNBS); experiment: Evaluation of regulatory efficacy on intestinal goblet cells, TNBS zebrafish model; assay type: in vivo; conditions: 15.0 μg/mL, 2 days after TNBS, n = 10
Protocol: The 3 dpf wild type zebrafish of line AB were randomly selected and placed in a 6-well plate, and for the experimental groups 30 zebrafish were treated in each well. Except for the normal control group (fed in a conventional manner), all the other experimental groups were given aqueous TNBS to establish a zebrafish model of gastrointestinal mucosal injury. After a 2-day treatment at 28° C., TNBS was removed, and the bovine spleen peptide powder dissolved in water was given at a concentration as shown in Table 9 below. The positive control prednisone was at a concentration of 15.0 μg/mL. Meanwhile, a normal control group and a model control group (i.e., a zebrafish model of gastrointestinal mucosal injury model established by TNBS) were set, with a capacity of 3 mL per well. After a further 2-day treatment at 28° C., 10 zebrafish from each experimental group were randomly selected and placed under the dissecting microscope for photographing. Data were acquired by the NIS-Elements D 3.20 advanced image processing software. The number of goblet cells in the intestine of zebrafish was analyzed. Statistical results were used to evaluate the regulatory efficacy of the goblet cells in the intestine of the zebrafish. The statistical results were expressed as “mean±standard deviation”.

SMILES	Amount of wake after sleep onset (mean ± standard deviation) [1] [mm]	Time of wake after sleep onset (mean ± standard deviation) [1] [s]	Number of intestinal goblet cells (mean ± standard deviation) [2] [count]
COc1ccc2[nH]cc(CCNC(C)=O)c2c1 [Melatonin, melatonin]	346 ± 35.3	8.18 ± 0.795	
C[C@]12C=CC(=O)C=C1CC[C@@H]1[C@@H]2C(=O)C[C@@]2(C)[C@H]1CC[C@]2(O)C(=O)CO [Prednisone, prednisone]			47.2 ± 1.89
